Test results taken from PubChem BioAssay AID1963834 (Molecular Pharmacology Branch, DTP, NCI, 2024).

System: 873145-292-R-J1-PDC complex spheroid viability
Assay: Anticancer human tumor 873145-292-R-J1-PDC patient-derived renal clear cell carcinoma cell line growth inhibition [POLQ]
Details: for IC50: curve of first compound; for viability, T/C: stronger effect = lower value
Outline: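 Patient-derived tumour cells were co-cultured with HUVEC and mesenchymal stem cells as multicellular spheroids at 37 °C. They were treated with POLQ inhibitors (novobiocin, ART-558, RP6685) alone or combined with other agents. Top concentrations were at or near clinical Cmax (otherwise 10 microM; SN-38 at 1 microM), decreasing in half-log steps.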

[1] = second compound 0.0316 µM, first compound 0.0316 µM
[2] = second compound 0.0316 µM, first compound 0.1 µM
[3] = second compound 0.0316 µM, first compound 0.316 µM
[4] = second compound 0.0316 µM, first compound 1 µM
[5] = second compound 0.0316 µM, first compound 3.16 µM
[6] = second compound 0.0316 µM, first compound 10 µM
[7] = second compound 0.1 µM, first compound 0.0316 µM
[8] = second compound 0.1 µM, first compound 0.1 µM
[9] = second compound 0.1 µM, first compound 0.316 µM
[10] = second compound 0.1 µM, first compound 1 µM
[11] = second compound 0.1 µM, first compound 3.16 µM
[12] = second compound 0.1 µM, first compound 10 µM
[13] = second compound 0.316 µM, first compound 0.0316 µM
[14] = second compound 0.316 µM, first compound 0.1 µM
[15] = second compound 0.316 µM, first compound 0.316 µM
[16] = second compound 0.316 µM, first compound 1 µM
[17] = second compound 0.316 µM, first compound 3.16 µM
[18] = second compound 0.316 µM, first compound 10 µM
[19] = second compound 1 µM, first compound 0.0316 µM
[20] = second compound 1 µM, first compound 0.1 µM
[21] = second compound 1 µM, first compound 0.316 µM
[22] = second compound 1 µM, first compound 1 µM
[23] = second compound 1 µM, first compound 3.16 µM
[24] = second compound 1 µM, first compound 10 µM
[25] = second compound 3.16 µM, first compound 0.0316 µM
[26] = second compound 3.16 µM, first compound 0.1 µM
[27] = second compound 3.16 µM, first compound 0.316 µM
[28] = second compound 3.16 µM, first compound 1 µM
[29] = second compound 3.16 µM, first compound 3.16 µM
[30] = second compound 3.16 µM, first compound 10 µM
[31] = second compound 10 µM, first compound 0.0316 µM
[32] = second compound 10 µM, first compound 0.1 µM
[33] = second compound 10 µM, first compound 0.316 µM
[34] = second compound 10 µM, first compound 1 µM
[35] = second compound 10 µM, first compound 3.16 µM
[36] = second compound 10 µM, first compound 10 µM
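Further: spheroids exposed to compounds for 7 days before viability readout.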
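Wherever viability, T/C is given: luminescence signal used as surrogate for viable cell content; 100% = DMSO vehicle control viability.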

SMILES: C#Cc1c(F)ccc2cc(O)cc(-c3ncc4c(N5CC6CCC(C5)N6)nc(OCC56CCCN5CC(F)C6)nc4c3F)c12 (stereo not drawn) + Nc1ccc(C#CCN(C(=O)Cc2ncc(C(F)(F)F)cc2C(F)(F)F)c2ccc(F)cc2)nn1
- IC50 (second compound 0.0316 µM): > 10 µM
- IC50 (second compound 0.1 µM): > 10 µM
- IC50 (second compound 0.316 µM): > 10 µM
- IC50 (second compound 1 µM): > 10 µM
- IC50 (second compound 3.16 µM): > 10 µM
- IC50 (second compound 10 µM): > 10 µM
- viability, T/C [1]: 102%
- viability, T/C [2]: 103%
- viability, T/C [3]: 106%
- viability, T/C [4]: 99.4%
- viability, T/C [5]: 105%
- viability, T/C [6]: 97.1%
- viability, T/C [7]: 115%
- viability, T/C [8]: 110%
- viability, T/C [9]: 96.6%
- viability, T/C [10]: 108%
- viability, T/C [11]: 101%
- viability, T/C [12]: 91.9%
- viability, T/C [13]: 101%
- viability, T/C [14]: 106%
- viability, T/C [15]: 84%
- viability, T/C [16]: 104%
- viability, T/C [17]: 98.8%
- viability, T/C [18]: 86.7%
- viability, T/C [19]: 108%
- viability, T/C [20]: 93.8%
- viability, T/C [21]: 111%
- viability, T/C [22]: 97.9%
- viability, T/C [23]: 104%
- viability, T/C [24]: 95.4%
- viability, T/C [25]: 106%
- viability, T/C [26]: 100%
- viability, T/C [27]: 107%
- viability, T/C [28]: 106%
- viability, T/C [29]: 90.7%
- viability, T/C [30]: 101%
- viability, T/C [31]: 108%
- viability, T/C [32]: 98.7%
- viability, T/C [33]: 104%
- viability, T/C [34]: 98.2%
- viability, T/C [35]: 109%
- viability, T/C [36]: 105%

SMILES: C=CC(=O)N1CCN(c2nc(=O)n(-c3c(C)ccnc3C(C)C)c3nc(-c4c(O)cccc4F)c(F)cc23)C(C)C1 (stereo not drawn) + Nc1ccc(C#CCN(C(=O)Cc2ncc(C(F)(F)F)cc2C(F)(F)F)c2ccc(F)cc2)nn1
- IC50 (second compound 0.0316 µM): > 10 µM
- IC50 (second compound 0.1 µM): > 10 µM
- IC50 (second compound 0.316 µM): > 10 µM
- IC50 (second compound 1 µM): > 10 µM
- IC50 (second compound 3.16 µM): > 10 µM
- IC50 (second compound 10 µM): > 10 µM
- viability, T/C [1]: 112%
- viability, T/C [2]: 105%
- viability, T/C [3]: 106%
- viability, T/C [4]: 120%
- viability, T/C [5]: 132%
- viability, T/C [6]: 134%
- viability, T/C [7]: 111%
- viability, T/C [8]: 110%
- viability, T/C [9]: 117%
- viability, T/C [10]: 124%
- viability, T/C [11]: 119%
- viability, T/C [12]: 128%
- viability, T/C [13]: 116%
- viability, T/C [14]: 117%
- viability, T/C [15]: 103%
- viability, T/C [16]: 126%
- viability, T/C [17]: 135%
- viability, T/C [18]: 123%
- viability, T/C [19]: 107%
- viability, T/C [20]: 110%
- viability, T/C [21]: 107%
- viability, T/C [22]: 129%
- viability, T/C [23]: 136%
- viability, T/C [24]: 126%
- viability, T/C [25]: 112%
- viability, T/C [26]: 116%
- viability, T/C [27]: 113%
- viability, T/C [28]: 131%
- viability, T/C [29]: 135%
- viability, T/C [30]: 139%
- viability, T/C [31]: 126%
- viability, T/C [32]: 113%
- viability, T/C [33]: 119%
- viability, T/C [34]: 132%
- viability, T/C [35]: 134%
- viability, T/C [36]: 142%

SMILES: CCc1cc2c(N3CCc4c(cc(Cn5ccnc5)cc4-c4cn(C)nc4C(F)(F)F)C3=O)cc(C)nc2c(OC)n1 + Nc1ccc(C#CCN(C(=O)Cc2ncc(C(F)(F)F)cc2C(F)(F)F)c2ccc(F)cc2)nn1
- IC50 (second compound 0.0316 µM): > 10 µM
- IC50 (second compound 0.1 µM): > 10 µM
- IC50 (second compound 0.316 µM): > 10 µM
- IC50 (second compound 1 µM): > 10 µM
- IC50 (second compound 3.16 µM): > 10 µM
- IC50 (second compound 10 µM): > 10 µM
- viability, T/C [1]: 92.6%
- viability, T/C [2]: 110%
- viability, T/C [3]: 101%
- viability, T/C [4]: 91.2%
- viability, T/C [5]: 80.6%
- viability, T/C [6]: 75.2%
- viability, T/C [7]: 103%
- viability, T/C [8]: 100%
- viability, T/C [9]: 77.9%
- viability, T/C [10]: 93%
- viability, T/C [11]: 79.2%
- viability, T/C [12]: 68.6%
- viability, T/C [13]: 94.4%
- viability, T/C [14]: 109%
- viability, T/C [15]: 74%
- viability, T/C [16]: 90.7%
- viability, T/C [17]: 95.8%
- viability, T/C [18]: 73.6%
- viability, T/C [19]: 101%
- viability, T/C [20]: 92.5%
- viability, T/C [21]: 91.9%
- viability, T/C [22]: 95.8%
- viability, T/C [23]: 77.6%
- viability, T/C [24]: 76.8%
- viability, T/C [25]: 97.9%
- viability, T/C [26]: 104%
- viability, T/C [27]: 97.6%
- viability, T/C [28]: 93%
- viability, T/C [29]: 85.7%
- viability, T/C [30]: 78.9%
- viability, T/C [31]: 105%
- viability, T/C [32]: 101%
- viability, T/C [33]: 98%
- viability, T/C [34]: 97.3%
- viability, T/C [35]: 89%
- viability, T/C [36]: 69.2%

SMILES: CCc1cc2c(N3CCc4c(cc(Cn5ccnc5)cc4-c4cn(C)nc4C(F)(F)F)C3=O)ccnc2c(OC)n1 + Nc1ccc(C#CCN(C(=O)Cc2ncc(C(F)(F)F)cc2C(F)(F)F)c2ccc(F)cc2)nn1
- IC50 (second compound 0.0316 µM): > 10 µM
- IC50 (second compound 0.1 µM): > 10 µM
- IC50 (second compound 0.316 µM): > 10 µM
- IC50 (second compound 1 µM): > 10 µM
- IC50 (second compound 3.16 µM): > 10 µM
- IC50 (second compound 10 µM): > 10 µM
- viability, T/C [1]: 97.9%
- viability, T/C [2]: 106%
- viability, T/C [3]: 87.8%
- viability, T/C [4]: 89.5%
- viability, T/C [5]: 81.3%
- viability, T/C [6]: 80.9%
- viability, T/C [7]: 98.7%
- viability, T/C [8]: 110%
- viability, T/C [9]: 82.9%
- viability, T/C [10]: 92.8%
- viability, T/C [11]: 102%
- viability, T/C [12]: 69.5%
- viability, T/C [13]: 101%
- viability, T/C [14]: 111%
- viability, T/C [15]: 82.3%
- viability, T/C [16]: 82.5%
- viability, T/C [17]: 101%
- viability, T/C [18]: 70.8%
- viability, T/C [19]: 92.7%
- viability, T/C [20]: 89.5%
- viability, T/C [21]: 79.6%
- viability, T/C [22]: 87.6%
- viability, T/C [23]: 94.3%
- viability, T/C [24]: 72.2%
- viability, T/C [25]: 99.8%
- viability, T/C [26]: 96.7%
- viability, T/C [27]: 82.2%
- viability, T/C [28]: 99.6%
- viability, T/C [29]: 80.9%
- viability, T/C [30]: 74.1%
- viability, T/C [31]: 106%
- viability, T/C [32]: 96.5%
- viability, T/C [33]: 97.8%
- viability, T/C [34]: 104%
- viability, T/C [35]: 84.9%
- viability, T/C [36]: 77.7%
